Assay results published in patent US20260374754A1, “N-((ISOQUINOLIN-6-YL)METHYL)-1H-PYRAZOLE-4-CARBOXAMIDE DERIVATIVES AS PLASMA KALLIKREIN INHIBITORS FOR THE TREATMENT OF HEREDITARY ANGIODEMA” (Takeda Pharmaceutical Company Limited, priority 2022, published 2026).
Where a name gives a salt, the structure may show the parent alone.

Molecular target: human activated kallikrein enzyme (Homo sapiens, UniProt P03952)
Test: Inhibition of human activated plasma kallikrein, fluorogenic PFR-AMC substrate, 500 pM enzyme format
Type: biochemical
Conditions: 500 pM activated kallikrein; 300 μM PFR-AMC; 30 min preincubation; 10 min room temperature; pH 7.5; read-out: Primary Dose Response Assay: Average EC50
Method in brief: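 Using fluorogenic PFR-AMC at 300 μM, cleavage by 500 pM human activated kallikrein ran 10 min at room temperature, read at 460 nm emission (380 nm excitation). Enzyme and compounds were first preincubated 30 min in 20 mM Tris pH 7.5, 150 mM NaCl, 1 mM EDTA, 0.1% PEG-400, 0.1% Triton X-100.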

human activated kallikrein enzyme, sequence (P03952 391-638 limits assumed): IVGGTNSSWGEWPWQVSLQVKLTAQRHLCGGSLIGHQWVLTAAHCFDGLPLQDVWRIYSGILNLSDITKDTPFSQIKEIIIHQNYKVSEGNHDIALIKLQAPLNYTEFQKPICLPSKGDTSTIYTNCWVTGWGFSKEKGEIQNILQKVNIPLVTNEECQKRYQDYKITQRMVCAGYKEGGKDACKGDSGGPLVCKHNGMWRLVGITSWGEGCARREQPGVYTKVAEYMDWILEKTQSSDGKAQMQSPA
human activated kallikrein enzyme, sequence (P03952 20-390 partner limits assumed): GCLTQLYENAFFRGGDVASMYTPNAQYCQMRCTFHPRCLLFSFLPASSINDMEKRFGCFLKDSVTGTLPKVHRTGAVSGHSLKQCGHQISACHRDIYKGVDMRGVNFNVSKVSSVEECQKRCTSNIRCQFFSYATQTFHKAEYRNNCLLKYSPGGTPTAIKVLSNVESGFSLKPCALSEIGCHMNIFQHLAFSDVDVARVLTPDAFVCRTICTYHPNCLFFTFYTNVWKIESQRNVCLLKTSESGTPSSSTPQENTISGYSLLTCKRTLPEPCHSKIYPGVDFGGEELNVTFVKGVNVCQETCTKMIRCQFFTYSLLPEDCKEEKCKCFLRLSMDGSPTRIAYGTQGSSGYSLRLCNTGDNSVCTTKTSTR

Question: Cc1cc2c(N)nccc2c(C)c1CNC(=O)c1cnn(Cc2cn3cc(C4CC4)cc(Cc4nnco4)c3n2)c1 [Example 172, 1-((8-((1,3,4-oxadiazol-2-yl)methyl)-6-cyclopropylimidazo[1,2-a]pyridin-2-y1)methyl)-N-((1-amino-5,7-dimethylisoquinolin-6-y1)methyl)-1H-pyrazole-4-carboxamide] was tested. Which EC50 did it give?
Answer: The EC50 was < 0.001 µM.

Question: Cc1cc2c(N)nccc2c(C)c1CNC(=O)c1cnn(Cc2cc3cccc(C)c3nc2Cl)c1 [Example 73, N-((1-amino-5,7-dimethylisoquinolin-6-yl)methyl)-1-((2-chloro-8-methylquinolin-3-yl)methyl)-1H-pyrazole-4-carboxamide] was tested. Which EC50 did it give?
Answer: The EC50 was 0.001 to 0.01 µM.

Question: Cc1cc2c(N)nccc2c(C)c1CNC(=O)c1cnn(Cc2ccc3nccnc3c2)c1 [Example 79, N-((1-amino-5,7-dimethylisoquinolin-6-yl)methyl)-1-(quinoxalin-6-ylmethyl)-1H-pyrazole-4-carboxamide] was tested. Which EC50 did it give?
Answer: Its EC50 is 0.001 to 0.01 µM.

Question: Cc1cc2c(N)nccc2c(C)c1CNc1cc(OCc2cn3nc(C4CC4)ccc3n2)nc(C(F)(F)F)n1 [Example 389, 6-(((6-((6-cyclopropylimidazo[1,2-b]pyridazin-2-yl)methoxy)-2-(trifluoromethyl)pyrimidin-4-yl)amino)methyl)-5,7-dimethylisoquinolin-1-amine] was tested. Which EC50 did it give?
Answer: Its EC50 is 0.01 to 0.1 µM.

Question: How did the EC50 turn out when Cc1cc2c(N)nccc2c(C)c1CNc1ccc2nnc(Cc3ccc4ncc(Cl)cc4c3)n2c1 [Example 519, 6-(((3-((3-chloroquinolin-6-yl)methyl)-[1,2,4]triazolo[4,3-a]pyridin-6-yl)amino)methyl)-5,7-dimethylisoquinolin-1-amine] was run?
Answer: The EC50 was 0.1 to 1 µM.

Question: With Cc1cc2c(N)nccc2c(C)c1CNC(=O)c1cnn(Cc2ccc3c(c2)nnn3C)c1 [Example 58, N-((1-amino-5,7-dimethylisoquinolin-6-yl)methyl)-1-((1-methyl-1H-benzo[d][1,2,3]triazol-5-yl)methyl)-1H-pyrazole-4-carboxamide] as the molecule, how does the EC50 read?
Answer: Its EC50 is 0.001 to 0.01 µM.

Question: How did the EC50 turn out when Cc1cc2c(N)nccc2c(C)c1CNc1cc(OCc2csc(-c3ccccc3)n2)cnn1 [Example 430, 5,7-dimethyl-6-(((5-((2-phenylthiazol-4-yl)methoxy)pyridazin-3-yl)amino)methyl)isoquinolin-1-amine] was run?
Answer: The EC50 was 0.01 to 0.1 µM.

Question: With Cc1cc2c(N)nccc2c(C)c1CNC(=O)c1cnn(Cc2ccc3ccccc3c2)c1 [Example 56, N-((1-amino-5,7-dimethylisoquinolin-6-yl)methyl)-1-(naphthalen-2-ylmethyl)-1H-pyrazole-4-carboxamide] as the molecule, how does the EC50 read?
Answer: Its EC50 is 0.001 to 0.01 µM.

Question: How did the EC50 turn out when Cc1cc2c(N)nccc2c(C)c1CNc1cc(NCc2ccc(OCC(=O)N(C)C)cc2)ncn1 [Example 377, 2-(4-(((6-(((1-amino-5,7-dimethylisoquinolin-6-yl)methyl)amino)pyrimidin-4-yl)amino)methyl)phenoxy)-N,N-dimethylacetamide] was run?
Answer: The EC50 was < 0.001 µM.

Question: Which EC50 does the source give for Cc1cc2c(N)nccc2c(C)c1CNC(=O)c1cnn(Cc2ccc(C(F)(F)C(=O)N(C)C)cc2)c1 [Example 23, N-((1-amino-5,7-dimethylisoquinolin-6-yl)methyl)-1-(4-(2-(dimethylamino)-1,1-difluoro-2-oxoethyl)benzyl)-1H-pyrazole-4-carboxamide] here?
Answer: The EC50 was 0.01 to 0.1 µM.

Question: For CCN(CC)C(=O)Cc1ccc(Cn2cc(C(=O)NCc3c(C)cc4c(N)nccc4c3C)cn2)cc1 [Example 226, N-((1-amino-5,7-dimethylisoquinolin-6-yl)methyl)-1-(4-(2-(diethylamino)-2-oxoethyl)benzyl)-1H-pyrazole-4-carboxamide], which EC50 is on record?
Answer: Its EC50 is < 0.001 µM.

Question: For Cc1cc2c(N)nccc2c(C)c1CNC(=O)c1cnn(Cc2ccc3c(-n4ccccc4=O)cccc3c2)c1 [Example 125, N-((1-amino-5,7-dimethylisoquinolin-6-yl)methyl)-1-((5-(2-oxopyridin-1(2H)-yl)naphthalen-2-yl)methyl)-1H-pyrazole-4-carboxamide], which EC50 is on record?
Answer: The EC50 was < 0.001 µM.

Question: With Cc1cc2c(N)nccc2c(C)c1CNc1cnnc(OCc2ccc(Cn3cccn3)cc2)c1 [Example 530, 6-(((6-((4-((1H-pyrazol-1-yl)methyl)benzyl)oxy)pyridazin-4-yl)amino)methyl)-5,7-dimethylisoquinolin-1-amine] as the molecule, how does the EC50 read?
Answer: Its EC50 is 0.01 to 0.1 µM.

Question: For Cc1cc2c(N)nccc2c(C)c1CNC(=O)c1cnn(Cc2ccc(Oc3cc(Cl)cn(C)c3=O)cc2)c1 [Example 17, N-((1-amino-5,7-dimethylisoquinolin-6-yl)methyl)-1-(4-((5-chloro-1-methyl-2-oxo-1,2-dihydropyridin-3-yl)oxy)benzyl)-1H-pyrazole-4-carboxamide], which EC50 is on record?
Answer: Its EC50 is < 0.001 µM.

Question: Which EC50 does the source give for Cc1cc2c(N)nccc2c(C)c1CNc1cc(N(C)Cc2ccc(Cn3cccn3)cc2)cnn1 [Example 235, N5-(4-((1H-pyrazol-1-yl)methyl)benzyl)-N3-((1-amino-5,7-dimethylisoquinolin-6-yl)methyl)-N5-methylpyridazine-3,5-diamine] here?
Answer: The EC50 was < 0.001 µM.

Question: For Cc1cc2c(N)nccc2c(C)c1CNc1cc(OCc2cc3cc(Cl)ccc3s2)cnn1 [Example 417, 6-(((5-((5-chlorobenzo[b]thiophen-2-yl)methoxy)pyridazin-3-yl)amino)methyl)-5,7-dimethylisoquinolin-1-amine, formic acid salt], which EC50 is on record?
Answer: The EC50 was 0.001 to 0.01 µM.

Question: Cc1cc2c(N)nccc2c(C)c1CNC(=O)c1cnn(Cc2ccc(CC(=O)N3CC4CC(C4)C3)cc2)c1 [Example 215, 1-(4-(2-(3-azabicyclo[3.1.1]heptan-3-yl)-2-oxoethyl)benzyl)-N-((1-amino-5,7-dimethylisoquinolin-6-yl)methyl)-1H-pyrazole-4-carboxamide] was tested. Which EC50 did it give?
Answer: Its EC50 is 0.001 to 0.01 µM.

Question: Which EC50 does the source give for Cc1cc2c(N)nccc2c(C)c1CNC(=O)c1cnn(Cc2cn3c(C)c(C)ccc3n2)c1 [Example 136, N-((1-amino-5,7-dimethylisoquinolin-6-yl)methyl)-1-((5,6-dimethylimidazo[1,2-a]pyridin-2-yl)methyl)-1H-pyrazole-4-carboxamide] here?
Answer: Its EC50 is < 0.001 µM.

Question: With Cc1cc2c(N)nccc2c(C)c1CNC(=O)c1cnn(Cc2cn3cc(C(F)(F)F)ccc3n2)c1 [Example 201, N-((1-amino-5,7-dimethylisoquinolin-6-yl)methyl)-1-((6-(trifluoromethyl)imidazo[1,2-a]pyridin-2-yl)methyl)-1H-pyrazole-4-carboxamide] as the molecule, how does the EC50 read?
Answer: The EC50 was < 0.001 µM.

Question: Which EC50 does the source give for COc1cccc2nc(Cn3cc(C(=O)NCc4c(C)cc5c(N)nccc5c4C)cn3)cn12 [Example 144, N-((1-amino-5,7-dimethylisoquinolin-6-yl)methyl)-1-((5-methoxyimidazo[1,2-a]pyridin-2-yl)methyl)-1H-pyrazole-4-carboxamide] here?
Answer: Its EC50 is < 0.001 µM.

Question: With Cc1cc2c(N)nccc2c(C)c1CNC(=O)c1cnn(Cc2ccc3cc(F)ccc3n2)c1 [Example 158, N-((1-amino-5,7-dimethylisoquinolin-6-yl)methyl)-1-((6-fluoroquinolin-2-yl)methyl)-1H-pyrazole-4-carboxamide] as the molecule, how does the EC50 read?
Answer: The EC50 was 0.001 to 0.01 µM.

Question: With Cc1ccc2ccc(Cn3cc(C(=O)NCc4c(C)cc5c(N)nccc5c4C)cn3)cc2c1 [Example 153, N-((1-amino-5,7-dimethylisoquinolin-6-yl)methyl)-1-((7-methylnaphthalen-2-yl)methyl)-1H-pyrazole-4-carboxamide] as the molecule, how does the EC50 read?
Answer: The EC50 was 0.001 to 0.01 µM.

Question: Which EC50 does the source give for Cc1cc2c(N)nccc2c(C)c1CNC(=O)c1cnn(CC(=O)N(C)c2ccccc2)c1 [Compound 155] here?
Answer: The EC50 was > 1 µM.

Question: How did the EC50 turn out when Cc1cnc2ccc(Cn3cc(C(=O)NCc4c(C)cc5c(N)nccc5c4C)cn3)cc2n1 [Example 24, N-((1-amino-5,7-dimethylisoquinolin-6-yl)methyl)-1-((3-methylquinoxalin-6-yl)methyl)-1H-pyrazole-4-carboxamide] was run?
Answer: Its EC50 is < 0.001 µM.

Question: Cc1ccc2nc(C(C)n3cc(C(=O)NCc4c(C)cc5c(N)nccc5c4C)cn3)cn2c1 (single isomer, unassigned) [Example 12, (S*)-N-((1-amino-5,7-dimethylisoquinolin-6-yl)methyl)-1-(1-(6-methylimidazo[1,2-a]pyridin-2-yl)ethyl)-1H-pyrazole-4-carboxamide] was tested. Which EC50 did it give?
Answer: Its EC50 is < 0.001 µM.

Question: How did the EC50 turn out when Cc1cc2c(N)nccc2c(C)c1CNc1cc(OCc2cnc(N3CCCC3)nc2)ncn1 [Example 298, 5,7-dimethyl-6-(((6-((2-(pyrrolidin-1-yl)pyrimidin-5-yl)methoxy)pyrimidin-4-yl)amino)methyl)isoquinolin-1-amine] was run?
Answer: The EC50 was 0.01 to 0.1 µM.

Question: How did the EC50 turn out when Cc1cc2c(N)nccc2c(C)c1CNc1cc(C(O)c2cn3cc(C4CC4)ccc3n2)ccn1 (centres unmarked) [Example 453, (2-(((1-amino-5,7-dimethylisoquinolin-6-yl)methyl)amino)pyridin-4-yl)(6-cyclopropylimidazo[1,2-a]pyridin-2-yl)methanol] was run?
Answer: Its EC50 is < 0.001 µM.

Question: How did the EC50 turn out when CCOC(=O)C(C)(C)Cc1cc(C2CC2)cc2cc(COc3cc(NCc4c(C)cc5c(N)nccc5c4C)ncn3)nn12 [Example 396, ethyl 3-(2-(((6-(((1-amino-5,7-dimethylisoquinolin-6-yl)methyl)amino)pyrimidin-4-yl)oxy)methyl)-5-cyclopropylpyrazolo[1,5-a]pyridin-7-yl)-2,2-dimethylpropanoate] was run?
Answer: Its EC50 is 0.001 to 0.01 µM.

Question: Cc1cc2c(N)nccc2c(C)c1CNc1cc(OCc2cn3ccccc3n2)cnn1 [Example 411, 6-(((5-(imidazo[1,2-a]pyridin-2-ylmethoxy)pyridazin-3-yl)amino)methyl)-5,7-dimethylisoquinolin-1-amine] was tested. Which EC50 did it give?
Answer: Its EC50 is 0.01 to 0.1 µM.

Question: Cc1cc2c(N)nccc2c(C)c1CNc1cncc(NCc2ccc(Cn3cccn3)cc2)n1 [Example I-476, N^2-(4-((1H-pyrazol-1-yl)methyl)benzyl)-N^6-((1-amino-5,7-dimethylisoquinolin-6-yl)methyl)pyrazine-2,6-diamine] was tested. Which EC50 did it give?
Answer: The EC50 was 0.01 to 0.1 µM.

Question: How did the EC50 turn out when Cc1cc2c(N)nccc2c(C)c1CNc1cc(NCc2ccc(Cn3cccn3)cc2F)ncn1 [Example 379, N^4-(4-((1H-pyrazol-1-yl)methyl)-2-fluorobenzyl)-N^6-((1-amino-5,7-dimethylisoquinolin-6-yl)methyl)pyrimidine-4,6-diamine] was run?
Answer: The EC50 was < 0.001 µM.

Question: With Cc1cc2c(N)nccc2c(C)c1CNC(=O)c1cnn(Cc2ccccc2C#N)c1 [Example 32, N-((1-amino-5,7-dimethylisoquinolin-6-yl)methyl)-1-(2-cyanobenzyl)-1H-pyrazole-4-carboxamide] as the molecule, how does the EC50 read?
Answer: Its EC50 is 0.1 to 1 µM.
